# “And” between values parts separate entries of the source, which are not always exact repeats. Equal values may be shown once. Read-outs that look alike come from different tables or passages of the source.
# Tests used:
# CB1 (rCB1) = CB1 (rCB1) (Rattus norvegicus, UniProt P20272); test: Radioligand competition binding, [3H]-CP-55,940, rat brain membranes
# hCB1 = hCB1 (Homo sapiens, UniProt P21554); test: bioSensAll ebBRET signaling profiling, hCB1; type: cell-based; parameters: host or cells: HEK293SL cells, transient PEI transfection; settings: for Gi1 hCB1 response: Gi1 biosensor; for Gi1 hCB1 / GoB hCB1: single replicate values, FigS6a; for Emax [95% CI]: normalized to CP-55,940; for EC50: read-out: EC50 [95% CI]
# hCB1, sequence (P21554 whole entry): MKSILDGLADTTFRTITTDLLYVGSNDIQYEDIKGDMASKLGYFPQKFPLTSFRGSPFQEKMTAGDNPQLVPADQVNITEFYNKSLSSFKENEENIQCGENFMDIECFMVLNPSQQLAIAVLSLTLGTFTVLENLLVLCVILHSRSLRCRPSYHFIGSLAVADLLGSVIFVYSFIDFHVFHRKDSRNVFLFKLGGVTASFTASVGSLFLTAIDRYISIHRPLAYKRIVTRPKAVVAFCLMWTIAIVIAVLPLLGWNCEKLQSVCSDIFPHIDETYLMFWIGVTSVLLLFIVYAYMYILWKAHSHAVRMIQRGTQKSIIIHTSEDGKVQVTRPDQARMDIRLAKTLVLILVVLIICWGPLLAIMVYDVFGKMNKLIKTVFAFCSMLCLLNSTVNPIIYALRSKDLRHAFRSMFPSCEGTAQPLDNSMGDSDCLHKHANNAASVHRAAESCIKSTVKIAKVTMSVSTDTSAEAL
# CB1 (rCB1), sequence (P20272 whole entry): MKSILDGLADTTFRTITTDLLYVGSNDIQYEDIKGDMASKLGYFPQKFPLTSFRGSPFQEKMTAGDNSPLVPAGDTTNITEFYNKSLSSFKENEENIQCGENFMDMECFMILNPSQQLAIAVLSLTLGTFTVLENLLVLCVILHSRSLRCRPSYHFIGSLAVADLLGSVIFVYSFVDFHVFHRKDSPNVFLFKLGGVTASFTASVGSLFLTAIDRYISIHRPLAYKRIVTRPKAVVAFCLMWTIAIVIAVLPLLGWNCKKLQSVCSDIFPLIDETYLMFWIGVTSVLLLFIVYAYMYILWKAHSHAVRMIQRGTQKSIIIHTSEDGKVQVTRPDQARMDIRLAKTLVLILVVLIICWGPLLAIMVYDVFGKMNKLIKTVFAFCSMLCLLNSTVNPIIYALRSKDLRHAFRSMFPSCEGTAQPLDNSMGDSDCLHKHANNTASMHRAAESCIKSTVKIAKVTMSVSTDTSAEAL
compound,measurement,setting,value
COC(=O)[C@@H]1[C@@H]2CC[C@@H]2CN1C(=O)c1cc(C)n(-c2cccc(C(F)(F)F)c2)n1 [‘6448],pKi [95% CI],CB1 (rCB1); rCB1,6.1 [5.9 – 6.3]
same,Ki,"CB1 (rCB1); read-out: Ki [95% CI], rCB1, [3H]-CP-55,940",866 nM
same,Gi1 hCB1 response,hCB1; Log [Compound] (M) -4.22186,143.498
same,Gi1 hCB1 response,hCB1; Log [Compound] (M) -4.63927,116.752
same,Gi1 hCB1 response,hCB1; Log [Compound] (M) -5.05788,114.537
same,Gi1 hCB1 response,hCB1; Log [Compound] (M) -5.47381,101.197
same,Gi1 hCB1 response,hCB1; Log [Compound] (M) -5.89285,80.4274
same,Gi1 hCB1 response,hCB1; Log [Compound] (M) -6.31878,64.6261
same,Gi1 hCB1 response,hCB1; Log [Compound] (M) -6.72585,36.0226
same,Gi1 hCB1 response,hCB1; Log [Compound] (M) -7.14267,33.4711
same,Gi1 hCB1 response,hCB1; Log [Compound] (M) -7.55284,2.182
same,Gi1 hCB1 response,hCB1; Log [Compound] (M) -8,-1.914
same,Gi1 hCB1 response,hCB1; Log [Compound] (M) -8.22186,-2.63
same,Gi1 hCB1 response,hCB1; Log [Compound] (M) -8.39794,-2.8987
same,Gi1 hCB1 response,hCB1; Log [Compound] (M) -8.68787,4.689
same,Gi1 hCB1 response,hCB1; Log [Compound] (M) -9.15521,0.03327
same,Gi1 hCB1 response,hCB1; Log [Compound] (M) -9.61989,-4.421
same,Gi1 hCB1 response,hCB1; Log [Compound] (M) -10.0969,-3.391
same,Gi1 hCB1 response,hCB1; Log [Compound] (M) -10.5529,-11.5156
same,Gi1 hCB1 response,hCB1; Log [Compound] (M) -11.0177,-16.4171
same,Gi1 hCB1 response,hCB1; Log [Compound] (M) -11.4949,-6.8826
same,Gi1 hCB1 response,hCB1; Log [Compound] (M) -11.9208,-5.674
same,Gi1 hCB1 response,hCB1; Log [Compound] (M) -12.3979,-5.204
same,Gi1 hCB1 response,hCB1; Log [Compound] (M) -12.8861,5.741
same,Gi1 hCB1 response,"hCB1; Log [Compound] (M) -13, individual replicate values",-12.366 and -4.51
same,Gi1 hCB1,hCB1; Log [Compound] (M) -4.22186,89.2431
same,GoB hCB1,hCB1; Log [Compound] (M) -4.22186,86.7412
same,Gi1 hCB1,hCB1; Log [Compound] (M) -4.63927,88.0098
same,GoB hCB1,hCB1; Log [Compound] (M) -4.63927,85.932
same,Gi1 hCB1,hCB1; Log [Compound] (M) -5.05788,83.6623
same,GoB hCB1,hCB1; Log [Compound] (M) -5.05788,87.6943
same,Gi1 hCB1,hCB1; Log [Compound] (M) -5.47381,80.8256
same,GoB hCB1,hCB1; Log [Compound] (M) -5.47381,88.7014
same,Gi1 hCB1,hCB1; Log [Compound] (M) -5.89285,71.5911
same,GoB hCB1,hCB1; Log [Compound] (M) -5.89285,74.7104
same,Gi1 hCB1,hCB1; Log [Compound] (M) -6.31878,53.785
same,GoB hCB1,hCB1; Log [Compound] (M) -6.31878,55.1804
same,Gi1 hCB1,hCB1; Log [Compound] (M) -6.72585,28.6559
same,GoB hCB1,hCB1; Log [Compound] (M) -6.72585,28.2594
same,Gi1 hCB1,hCB1; Log [Compound] (M) -7.14267,11.4665
same,GoB hCB1,hCB1; Log [Compound] (M) -7.14267,15.0956
same,Gi1 hCB1,hCB1; Log [Compound] (M) -7.55284,4.6215
same,GoB hCB1,hCB1; Log [Compound] (M) -7.55284,3.137
same,Gi1 hCB1,hCB1; Log [Compound] (M) -8,2.093
same,GoB hCB1,hCB1; Log [Compound] (M) -8,2.004
same,Gi1 hCB1,hCB1; Log [Compound] (M) -8.22186,-0.06514
same,GoB hCB1,hCB1; Log [Compound] (M) -8.22186,-3.751
same,Gi1 hCB1,hCB1; Log [Compound] (M) -8.39794,1.1836
same,GoB hCB1,hCB1; Log [Compound] (M) -8.39794,1.464
same,Gi1 hCB1,hCB1; Log [Compound] (M) -8.68787,-1.113
same,GoB hCB1,hCB1; Log [Compound] (M) -8.68787,-5.28
same,Gi1 hCB1,hCB1; Log [Compound] (M) -9.15521,-0.1114
same,GoB hCB1,hCB1; Log [Compound] (M) -9.15521,-2.294
same,Gi1 hCB1,hCB1; Log [Compound] (M) -9.61989,0.7519
same,GoB hCB1,hCB1; Log [Compound] (M) -9.61989,-1.629
same,Gi1 hCB1,hCB1; Log [Compound] (M) -10.0969,0.8753
same,GoB hCB1,hCB1; Log [Compound] (M) -10.0969,-3.751
same,Gi1 hCB1,hCB1; Log [Compound] (M) -10.5529,1.9236
same,GoB hCB1,hCB1; Log [Compound] (M) -10.5529,-0.9636
same,Gi1 hCB1,hCB1; Log [Compound] (M) -11.0177,-0.281
same,GoB hCB1,hCB1; Log [Compound] (M) -11.0177,-2.384
same,Gi1 hCB1,hCB1; Log [Compound] (M) -11.4949,-0.1268
same,GoB hCB1,hCB1; Log [Compound] (M) -11.4949,-1.305
same,Gi1 hCB1,hCB1; Log [Compound] (M) -11.9208,-0.1885
same,GoB hCB1,hCB1; Log [Compound] (M) -11.9208,1.266
same,Gi1 hCB1,hCB1; Log [Compound] (M) -12.3979,1.723
same,GoB hCB1,hCB1; Log [Compound] (M) -12.3979,0.7628
same,Gi1 hCB1,hCB1; Log [Compound] (M) -12.8861,0.4436
same,GoB hCB1,hCB1; Log [Compound] (M) -12.8861,-2.798
same,Gi1 hCB1,hCB1; Log [Compound] (M) -13,0.1969 and 0.2278
same,GoB hCB1,hCB1; Log [Compound] (M) -13,1.32 and 1.356
same,pEC50 [95% CI],hCB1; hCB1 Gi1,6.5 [6.4 – 6.5]
same,Emax [95% CI],hCB1; hCB1 Gi1,87 [86 – 88]
same,pEC50 [95% CI],hCB1; hCB1 GoB,6.5 [6.4 – 6.6]
same,Emax [95% CI],hCB1; hCB1 GoB,90 [87 – 91]
same,pEC50 [95% CI],hCB1; hCB1 Gz,6.1 [5.9 – 6.4]
same,Emax [95% CI],hCB1; hCB1 Gz,151 [130 –172]
same,EC50,hCB1; hCB1 Gi1,345 nM
same,EC50,hCB1; hCB1 GoB,310 nM
same,EC50,hCB1; hCB1 Gz,728 nM

# Reference: article PMC11882969 (Nature Communications, 2025)
